Patent US10759843B2, “Method and pharmaceutical composition for use in the treatment of cancer” (priority 2012, dated 2020)
Entries after “also recorded” stand apart in the source; their conditions may differ. No end group written: not given here.

Tests used:
[1] = test system: Colon carcinoma; assay: PCD induction in primary cancer cells; type: cell-based
[2] = test system: Prostate tumor cells; assay: PCD induction in primary cancer cells; type: cell-based
[3] = test system: Acute T cell leukemia; assay: PCD induction in primary cancer cells; type: cell-based
[4] = test system: Bladder carcinoma; assay: PCD induction in primary cancer cells; type: cell-based
[5] = test system: Chronic Lymphocytic Leukemia; assay: PCD induction in primary cancer cells; type: cell-based
[6] = test system: primary cancer cells; assay: PCD induction in primary cancer cells (whole panel of Table 2); type: cell-based; settings: primary cancer cells (Table 2)
[7] = test system: MDA-MB-231; assay: PCD induction in cancer cell lines, Annexin V labeling; type: cell-based; settings: MDA-MB-231 (Adenocarcinoma), 400 μM 4N1K, 1 h
Description: (§1) We used Annexin V-FITC (BD Biosciences) for the assessment of phosphatidylserine (PS) exposure. Data analysis was carried out in a FACSCanto II (BD Biosciences) on the total cell population (10,000 cells). Data were analyzed using FlowJo software (TreeStar).

[8] = test system: RPMI 8226; assay: as above; type: cell-based; settings: RPMI 8226 (B lymphocytic cell line), 400 μM 4N1K, 1 h
Description: as §1

[9] = test system: MCF-7; assay: as above; type: cell-based; settings: MCF-7 (Breast adenocarcinoma), 400 μM 4N1K, 1 h
Description: as §1

[10] = test system: RPMI 8866; assay: as above; type: cell-based; settings: RPMI 8866 (B lymphocytic cell line), 400 μM 4N1K, 1 h
Description: as §1

[11] = test system: RAMOS; assay: as above; type: cell-based; settings: RAMOS (Burkitt's lymphoma), 400 μM 4N1K, 1 h
Description: as §1

[12] = test system: OV10; assay: as above; type: cell-based; settings: OV10 (Ovarian Carcinoma), 400 μM 4N1K, 1 h
Description: as §1

[13] = test system: RAJI; assay: as above; type: cell-based; settings: RAJI (Burkitt's lymphoma), 400 μM 4N1K, 1 h
Description: as §1

[14] = test system: MEC-1; assay: as above; type: cell-based; settings: MEC-1 (Chronic Lymphocytic Leukemia), 400 μM 4N1K, 1 h
Description: as §1

[15] = test system: U937; assay: as above; type: cell-based; settings: U937 (Diffuse histiocytic lymphoma), 400 μM 4N1K, 1 h
Description: as §1

[16] = test system: A549; assay: as above; type: cell-based; settings: A549 (Lung carcinoma), 400 μM 4N1K, 1 h
Description: as §1

[17] = test system: CEM; assay: as above; type: cell-based; settings: CEM (Acute lymphoblastic leukemia), 400 μM 4N1K, 1 h
Description: as §1

[18] = test system: JURKAT; assay: as above; type: cell-based; settings: JURKAT (Acute T cell leukemia), 400 μM 4N1K, 1 h
Description: as §1

[19] = test system: HBL-100; assay: as above; type: cell-based; settings: HBL-100 (Breast epithelial cells with transformed morphology), 400 μM 4N1K, 1 h
Description: as §1

[20] = test system: AU-565; assay: as above; type: cell-based; settings: AU-565 (Breast adenocarcinoma), 400 μM 4N1K, 1 h
Description: as §1

[21] = test system: LNCAP; assay: as above; type: cell-based; settings: LNCAP (Prostate cancer), 400 μM 4N1K, 1 h
Description: as §1

[22] = test system: JM-1; assay: as above; type: cell-based; settings: JM-1 (Immunoblastic B cell lymphoma), 400 μM 4N1K, 1 h
Description: as §1

[23] = test system: HELA; assay: as above; type: cell-based; settings: HELA (Cervical cancer), 400 μM 4N1K, 1 h
Description: as §1

[24] = test system: Ovarian carcinoma; assay: PCD induction in primary cancer cells; type: cell-based
[25] = test system: Glioma; assay: PCD induction in primary cancer cells; type: cell-based
[26] = test system: cancer cell lines; assay: PCD induction in cancer cell lines (whole panel of Table 1); type: cell-based; settings: cancer cell lines (Table 1)
Description: as §1

[27] = test system: Lymphoplasmacytic lymphoma; assay: PCD induction in primary cancer cells; type: cell-based
[28] = test system: B cells isolated from CLL patients; assay: PCD (phosphatidylserine exposure, Annexin-V-FITC, flow cytometry) in B cells from CLL patients; type: cell-based, human
Text: (§2) After authorized consent forms fresh blood samples will be collected from CLL patients diagnosed according to classical morphological and immunophenotypic criteria at Pitié-Salpêtrière Hospital (Service d'Hématologie Biologique). Normal B lymphocytes will be obtained from EFS (Etablisement Français du Sang). The Institutional Ethics Committee at Pitie-Salpetriere Hospital approved the present study. Mononuclear cells were purified from blood samples using a standard Ficoll-Hypaque gradient, and B cells were positively or negatively selected by magnetic beads coupled to anti-CD19 monoclonal antibody (positive selection) or to anti-CD16, CD3, and CD14 monoclonal antibodies (negative depletion) (Miltenyi Biotech). No changes were found in the cell death response of positively or negatively selected cells. Purified B-lymphocytes were cultured in complete medium (RPMI 1640 medium supplemented with 10% fetal calf serum, 2 mM L-glutamine, and 100 U/ml penicillin-streptomycin). Unless specified, reagents were from Sigma-Aldrich.
To induce cell death B-lymphocytes were cultured 1 h with the TSP-1 derived peptide 4N1K (300 μM; sequence KRFYVVMWKK, SEQ ID NO:1), the negative control peptide 4NGG (300 μM; sequence KRFYGGMWKK, SEQ ID NO:2), the newly developed peptide PKHB1 (150 μM; sequence (D)K-R-F-Y-[…]-M-W-(D)K) (formula I) or an anti-CD47 mAb (in soluble conditions or in immobilized precoated plates; 5 μg/ml; clone B6H12). Alternatively, B-cells were pre-treated for 30 min before the induction of cell death with the calcium chelator BAPTA-AM (20 μM), the caspase-inhibitor Z-VAD.fmk (50 μM).
as §1

[29] = test system: Follicular lymphoma; assay: PCD induction in primary cancer cells; type: cell-based
[30] = test system: Mantle cell lymphoma; assay: PCD induction in primary cancer cells; type: cell-based
[31] = test system: Hairy cell leucemia (HCL); assay: PCD induction in primary cancer cells; type: cell-based
[32] = test system: B cells from CLL patients; assay: Free Ca2+ mobilization, Fura-2 AM, Till photonics; type: cell-based, human; settings: Fura-2 AM (FIG. 4)
Description: Cells, adhered in Polylysine coated glass-bottom Petri dishes, were loaded with Fura-2 AM (1 μM/30 min/37° C.). Cells were then excited by wavelengths of 340 and 380 nm and fluorescence emission of several cells was simultaneously recorded at 510 nm at a frequency of 1 Hz using a dual excitation fluorometric imaging system (TILL-Photonics) controlled by TILL-Vision software. Signals were computed into relative ratio units of the fluorescence intensity of the different wavelengths (340/380 nm). Individual fluorescence values were then analyzed with Origin software to normalize the fluorescence with the first value according to the equation (F/F0)−1, where ‘F’ is the fluorescence at specific time point and ‘F0’ is the fluorescence at time 0.

[33] = test system: Breast carcinoma; assay: PCD induction in primary cancer cells; type: cell-based
[34] = test system: Marginal B cell lymphoma; assay: PCD induction in primary cancer cells; type: cell-based
[35] = test system: normal B-lymphocytes; assay: PCD (Annexin-V-FITC) in normal B-lymphocytes; type: cell-based, human
Text: as §2, with “Sigma-Aldrich. […]” for “Sigma-Aldrich.”
We used Annexin V-FITC (BD Biosciences) for the assessment of phosphatidylserine (PS) exposure. […] Data were analyzed using FlowJo software (TreeStar).

[36] = test system: Hepatocellular carcinoma; assay: PCD induction in primary cancer cells; type: cell-based
[37] = test system: Diffuse large B cell lymphoma; assay: PCD induction in primary cancer cells; type: cell-based
[38] = test system: Glioblastoma; assay: PCD induction in primary cancer cells; type: cell-based

Sequence: KRFYVVMWKK [4N1K, K-R-F-Y-V-V-M-W-K-K]
- Cell death induction via CD47 [1]: + (more than 35% of programmed cell death induction via CD47 receptor)
- Cell death induction via CD47 [2]: + (more than 35% of programmed cell death induction via CD47 receptor)
- Cell death induction via CD47 [3]: + (more than 35% of programmed cell death induction via CD47 receptor)
- Cell death induction via CD47 [4]: + (more than 35% of programmed cell death induction via CD47 receptor)
- Cell death induction via CD47 [5]: + (more than 35% of programmed cell death induction via CD47 receptor)
- cell death induction [6]: more than 35%
- Cell death induction via CD47 [7]: + (more than 35% of cell death induction, assessed by Annexin V labeling, after 1 h of stimulation with 400 μM of 4N1K (means of six independent experiments))
- Cell death induction via CD47 [8]: + (more than 35% of cell death induction, assessed by Annexin V labeling, after 1 h of stimulation with 400 μM of 4N1K (means of six independent experiments))
- Cell death induction via CD47 [9]: + (more than 35% of cell death induction, assessed by Annexin V labeling, after 1 h of stimulation with 400 μM of 4N1K (means of six independent experiments))
- Cell death induction via CD47 [10]: + (more than 35% of cell death induction, assessed by Annexin V labeling, after 1 h of stimulation with 400 μM of 4N1K (means of six independent experiments))
- Cell death induction via CD47 [11]: + (more than 35% of cell death induction, assessed by Annexin V labeling, after 1 h of stimulation with 400 μM of 4N1K (means of six independent experiments))
- Cell death induction via CD47 [12]: + (more than 35% of cell death induction, assessed by Annexin V labeling, after 1 h of stimulation with 400 μM of 4N1K (means of six independent experiments))
- Cell death induction via CD47 [13]: + (more than 35% of cell death induction, assessed by Annexin V labeling, after 1 h of stimulation with 400 μM of 4N1K (means of six independent experiments))
- Cell death induction via CD47 [14]: + (more than 35% of cell death induction, assessed by Annexin V labeling, after 1 h of stimulation with 400 μM of 4N1K (means of six independent experiments))
- Cell death induction via CD47 [15]: + (more than 35% of cell death induction, assessed by Annexin V labeling, after 1 h of stimulation with 400 μM of 4N1K (means of six independent experiments))
- Cell death induction via CD47 [16]: + (more than 35% of cell death induction, assessed by Annexin V labeling, after 1 h of stimulation with 400 μM of 4N1K (means of six independent experiments))
- Cell death induction via CD47 [17]: + (more than 35% of cell death induction, assessed by Annexin V labeling, after 1 h of stimulation with 400 μM of 4N1K (means of six independent experiments))
- Cell death induction via CD47 [18]: + (more than 35% of cell death induction, assessed by Annexin V labeling, after 1 h of stimulation with 400 μM of 4N1K (means of six independent experiments))
- Cell death induction via CD47 [19]: + (more than 35% of cell death induction, assessed by Annexin V labeling, after 1 h of stimulation with 400 μM of 4N1K (means of six independent experiments))
- Cell death induction via CD47 [20]: + (more than 35% of cell death induction, assessed by Annexin V labeling, after 1 h of stimulation with 400 μM of 4N1K (means of six independent experiments))
- Cell death induction via CD47 [21]: + (more than 35% of cell death induction, assessed by Annexin V labeling, after 1 h of stimulation with 400 μM of 4N1K (means of six independent experiments))
- Cell death induction via CD47 [22]: + (more than 35% of cell death induction, assessed by Annexin V labeling, after 1 h of stimulation with 400 μM of 4N1K (means of six independent experiments))
- Cell death induction via CD47 [23]: + (more than 35% of cell death induction, assessed by Annexin V labeling, after 1 h of stimulation with 400 μM of 4N1K (means of six independent experiments))
- Cell death induction via CD47 [24]: + (more than 35% of programmed cell death induction via CD47 receptor)
- Cell death induction via CD47 [25]: + (more than 35% of programmed cell death induction via CD47 receptor)
- cell death induction [26]: more than 35%
- Cell death induction via CD47 [27]: + (more than 35% of programmed cell death induction via CD47 receptor)
- difference in PCD response between CLL cells with functional and non-functional TP53 ([28]; 300 μM, 1 h (FIG. 2B)): Not significant difference
- cell death in CLL cells ([28]; 300 μM, 1 h, Annexin-V-FITC, cohort of 14 CLL patients (FIG. 6B)): about 45%
- difference in PCD between CLL cells treated or not with caspase inhibitor ZVAD ([28]; 300 μM, 1 h, z-VAD.fmk 50 μM pre-incubation (FIG. 2A)): Not significant difference
- effect of pre-treatment with calcium chelator BAPTA-AM on peptide-mediated PCD ([28]; BAPTA-AM 20 μM before PCD induction (FIG. 5, FIG. 6D)): abrogates
- PCD induction in CLL primary cells (in words) ([28]; soluble peptide or mAb (FIG. 1)): induces caspase-independent PCD
- Cell death induction via CD47 [29]: + (more than 35% of programmed cell death induction via CD47 receptor)
- Cell death induction via CD47 [30]: + (more than 35% of programmed cell death induction via CD47 receptor)
- Cell death induction via CD47 [31]: + (more than 35% of programmed cell death induction via CD47 receptor)
- intracellular free Ca2+ mobilization [32]: does not come back to basal level; also recorded: potent and sustained increase of calcium mobilization
- Cell death induction via CD47 [33]: + (more than 35% of programmed cell death induction via CD47 receptor)
- Cell death induction via CD47 [34]: + (more than 35% of programmed cell death induction via CD47 receptor)
- cytotoxicity in normal B-lymphocytes [35]: not in normal B-lymphocytes
- Cell death induction via CD47 [36]: + (more than 35% of programmed cell death induction via CD47 receptor)
- Cell death induction via CD47 [37]: + (more than 35% of programmed cell death induction via CD47 receptor)
- Cell death induction via CD47 [38]: + (more than 35% of programmed cell death induction via CD47 receptor)
